Source: patent US10597388B2, “Pyridazinone herbicides” (FMC CORPORATION, priority 2014, dated 2020)

Key:
Type in all cases: in vivo
[1] = test system: barnyardgrass (Echinochloa crus-galli); assay: Test B flooded paddy test; conditions: 250 g ai/ha, Flood; visual rating on scale of 0 to 100 where 0 is no effect and 100 is complete control; 13 to 15 d after treatment
How it was run: (§1)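 Plants grown to the 2-leaf stage. At treatment, pots were flooded to 3 cm above the soil, compound was applied directly to the paddy water, and that depth was held throughout. After 13 to 15 d in the greenhouse, response was rated visually against controls on a 0 (no effect) to 100 (complete control) scale.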

[2] = test system: ducksalad (Heteranthera limosa); assay: Test B flooded paddy test; conditions: 250 g ai/ha, Flood; visual rating on scale of 0 to 100 where 0 is no effect and 100 is complete control; 13 to 15 d after treatment
How it was run: as §1

rice (Oryza sativa) = assay: Test B flooded paddy test; conditions: 250 g ai/ha, Flood; visual rating on scale of 0 to 100 where 0 is no effect and 100 is complete control; 13 to 15 d after treatment
How it was run: as §1

[3] = test system: sedge, umbrella (small-flower umbrella sedge, Cyperus difformis); assay: Test B flooded paddy test; conditions: 250 g ai/ha, Flood; visual rating on scale of 0 to 100 where 0 is no effect and 100 is complete control; 13 to 15 d after treatment
How it was run: as §1

soybean (Glycine max) = assay: Test C greenhouse herbicide test, pre- and postemergence
How it was run: (§2)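 Visual ratings on a 0 to 100 scale (0 = no effect, 100 = complete control) versus untreated controls, scored 13–15 d after treatment. Soil-applied preemergence to seeded loam/sand; foliar postemergence to 1- to 4-leaf plants (2–18 cm) in peat-vermiculite mix; compounds formulated in solvent plus surfactant.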

[4] = test system: wheat (winter wheat, Triticum aestivum); assay: as above
How it was run: as §2

[5] = test system: chickweed (common chickweed, Stellaria media); assay: Test C greenhouse herbicide test, postemergence
How it was run: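 Greenhouse postemergence spray on plants 2–18 cm tall; response judged visually after 13–15 d relative to untreated controls using a 0 (none) to 100 (full control) scale.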

[6] = test system: waterhemp_RES1 (ALS & Triazine resistant common waterhemp, Amaranthus rudis); assay: Test E greenhouse herbicide test, postemergence
Procedure: (§3) At the same time, plants from these crop and weed species and also waterhemp_RES1, (ALS & Triazine resistant common waterhemp, Amaranthus rudis), and waterhemp_RES2, (ALS & HPPD resistant common waterhemp, Amaranthus rudis) were planted in pots containing Redi-Earth® planting medium (Scotts Company, 14111 Scottslawn Road, Marysville, Ohio 43041) comprising spaghnum peat moss, vermiculite, wetting agent and starter nutrients were treated with postemergence applications of test chemicals formulated in the same manner. Plants ranged in height from 2 to 18 cm for postemergence treatments (1- to 4-leaf stage). Treated plants and controls were maintained in a greenhouse for 14 to 21 d, after which time all species were compared to controls and visually evaluated. Plant response ratings, summarized in Table E, are based on a scale of 0 to 100 where 0 is no effect and 100 is complete control. A dash (-) response means no test result.

[7] = test system: waterhemp_RES2 (ALS & HPPD resistant common waterhemp, Amaranthus rudis); assay: Test E greenhouse herbicide test, postemergence
Procedure: as §3

[8] = Postemergence, 31 g ai/ha, scale 0 to 100 (0 no effect, 100 complete control)
[9] = Postemergence, 62 g ai/ha, 0 to 100 scale (0 no effect, 100 complete control)
[10] = Postemergence, 250 g ai/ha, scale 0 to 100, 0 no effect, 100 complete control, 13 to 15 d
[11] = Preemergence, 31 g ai/ha, scale 0 to 100, 0 is no effect, 100 is complete control
[12] = Preemergence, 62 g ai/ha, scale 0 to 100, 0 is no effect, 100 is complete control
[13] = Preemergence, 125 g ai/ha, scale 0 to 100, 0 is no effect, 100 is complete control
[14] = Preemergence, 250 g ai/ha, scale 0 to 100 (0 no effect, 100 complete control)
[15] = postemergence, 125 g ai/ha, scale 0 to 100, 0 no effect, 100 complete control
[16] = 31 g ai/ha, visual, scale 0 no effect to 100 complete control
[17] = 125 g ai/ha, scale 0 to 100 (0 no effect, 100 complete control)
[18] = 250 g ai/ha, scale 0 to 100 (0 no effect, 100 complete control)
[19] = Postemergence, 125 g ai/ha, scale 0 to 100, 0 is no effect, 100 is complete control
[20] = postemergence, 62 g ai/ha, scale 0 to 100, 0 no effect, 100 complete control
[21] = Postemergence, 31 g ai/ha, 0 to 100 scale (0 no effect, 100 complete control)
[22] = 62 g ai/ha, scale 0 to 100 (0 no effect, 100 complete control)

SMILES: CC(=O)Oc1c(C)nn(C)c(=O)c1-c1c(C)cc(C)c2ccccc12 [Compound 153]
- Plant response rating, Barnyardgrass [1]: 0
- Plant response rating, Ducksalad [2]: 0
- Plant response rating, Rice (rice (Oryza sativa)): 0
- Plant response rating, Sedge, Umbrella [3]: 0
- Plant response rating, Soybean (soybean (Glycine max); [8]): 5
- Soybean plant response rating (soybean (Glycine max); [9]): 10
- Plant response rating, Soybean (soybean (Glycine max); [10]): 5
- Plant response rating, Soybean (soybean (Glycine max); [11]): 20
- Plant response rating, Soybean (soybean (Glycine max); [12]): 10
- Plant response rating, Soybean (soybean (Glycine max); [13]): 20
- Soybean plant response rating (soybean (Glycine max); [14]): 45
- Soybean plant response rating (soybean (Glycine max); [15]): 10
- Plant response rating, Wheat [4, 8]: 15
- Wheat plant response rating [4, 9]: 20
- Plant response rating, Wheat [4, 10]: 10
- Plant response rating, Wheat [4, 11]: 0
- Plant response rating, Wheat [4, 12]: 10
- Plant response rating, Wheat [4, 13]: 30
- Wheat plant response rating [4, 14]: 50
- Wheat plant response rating [4, 15]: 10
- Plant response rating, Chickweed [5, 8]: 90
- Chickweed plant response rating [5, 9]: 95
- Plant response rating, Chickweed [5, 10]: 98
- Chickweed plant response rating [5, 15]: 98
- Plant response rating, Waterhemp_RES1 [6, 16]: 50
- Plant response rating, Waterhemp_RES1 [6, 17]: 50
- Plant response rating, Waterhemp_RES1 [6, 18]: 60
- Plant response rating, Waterhemp_RES2 [7, 16]: 10
- Plant response rating, Waterhemp_RES2 [7, 17]: 30
- Plant response rating, Waterhemp_RES2 [7, 18]: 50

SMILES: COc1nn(C)c(=O)c(-c2c(C)sc3ccc(Cl)cc23)c1O [Compound 100]
- Plant response rating, Barnyardgrass [1]: 0
- Plant response rating, Ducksalad [2]: 0
- Plant response rating, Rice (rice (Oryza sativa)): 0
- Plant response rating, Sedge, Umbrella [3]: 0
- Plant response rating, Soybean (soybean (Glycine max); [19]): 5
- Plant response rating, Soybean (soybean (Glycine max); [10]): 5
- Soybean plant response rating (soybean (Glycine max); [20]): 5
- Plant response rating, Wheat [4, 19]: 0
- Plant response rating, Wheat [4, 10]: 5
- Wheat plant response rating [4, 20]: 0
- Chickweed plant response rating [5, 21]: 90
- Plant response rating, Chickweed [5, 19]: 95
- Plant response rating, Chickweed [5, 10]: 95
- Chickweed plant response rating [5, 20]: 90
- Plant response rating, Waterhemp_RES1 [6, 16]: 80
- Plant response rating, Waterhemp_RES1 [6, 17]: 85
- Plant response rating, Waterhemp_RES1 [6, 18]: 90
- Plant response rating, Waterhemp_RES2 [7, 16]: 50
- Plant response rating, Waterhemp_RES2 [7, 17]: 65
- Plant response rating, Waterhemp_RES2 [7, 18]: 70

SMILES: CC(=O)Oc1c(C)nn(C)c(=O)c1-c1c(C)sc2ccc(C)cc12 [Compound 25]
- Plant response rating, Barnyardgrass [1]: 30
- Plant response rating, Ducksalad [2]: 20
- Plant response rating, Rice (rice (Oryza sativa)): 0
- Plant response rating, Sedge, Umbrella [3]: 60
- Soybean plant response rating (soybean (Glycine max); [21]): 0
- Plant response rating, Soybean (soybean (Glycine max); [19]): 10
- Plant response rating, Soybean (soybean (Glycine max); [10]): 10
- Plant response rating, Soybean (soybean (Glycine max); [12]): 0
- Plant response rating, Soybean (soybean (Glycine max); [13]): 0
- Soybean plant response rating (soybean (Glycine max); [14]): 5
- Soybean plant response rating (soybean (Glycine max); [20]): 0
- Wheat plant response rating [4, 21]: 0
- Plant response rating, Wheat [4, 19]: 0
- Plant response rating, Wheat [4, 10]: 5
- Plant response rating, Wheat [4, 12]: 0
- Plant response rating, Wheat [4, 13]: 0
- Wheat plant response rating [4, 14]: 5
- Wheat plant response rating [4, 20]: 0
- Chickweed plant response rating [5, 21]: 90
- Plant response rating, Chickweed [5, 19]: 100
- Plant response rating, Chickweed [5, 10]: 100
- Chickweed plant response rating [5, 20]: 98
- Plant response rating, Waterhemp_RES1 [6, 16]: 75
- Plant response rating, Waterhemp_RES1 [6, 22]: 80
- Plant response rating, Waterhemp_RES1 [6, 17]: 85
- Plant response rating, Waterhemp_RES1 [6, 18]: 95
- Plant response rating, Waterhemp_RES2 [7, 16]: 70
- Plant response rating, Waterhemp_RES2 [7, 22]: 60
- Plant response rating, Waterhemp_RES2 [7, 17]: 70
- Plant response rating, Waterhemp_RES2 [7, 18]: 75

SMILES: CCOC(=O)Oc1c(C)nn(C)c(=O)c1-c1c(C)sc2c(C)cc(C)cc12 [Compound 83]
- Plant response rating, Barnyardgrass [1]: 60
- Plant response rating, Ducksalad [2]: 70
- Plant response rating, Rice (rice (Oryza sativa)): 30
- Plant response rating, Sedge, Umbrella [3]: 90
- Plant response rating, Soybean (soybean (Glycine max); [19]): 0
- Plant response rating, Soybean (soybean (Glycine max); [10]): 10
- Plant response rating, Soybean (soybean (Glycine max); [11]): 30
- Plant response rating, Soybean (soybean (Glycine max); [12]): 0
- Plant response rating, Soybean (soybean (Glycine max); [13]): 0
- Soybean plant response rating (soybean (Glycine max); [14]): 0
- Soybean plant response rating (soybean (Glycine max); [20]): 0
- Plant response rating, Wheat [4, 19]: 0
- Plant response rating, Wheat [4, 10]: 0
- Plant response rating, Wheat [4, 11]: 0
- Plant response rating, Wheat [4, 12]: 0
- Plant response rating, Wheat [4, 13]: 0
- Wheat plant response rating [4, 14]: 0
- Wheat plant response rating [4, 20]: 0
- Chickweed plant response rating [5, 21]: 90
- Plant response rating, Chickweed [5, 19]: 95
- Plant response rating, Chickweed [5, 10]: 100
- Chickweed plant response rating [5, 20]: 95
- Plant response rating, Waterhemp_RES1 [6, 16]: 70
- Plant response rating, Waterhemp_RES1 [6, 17]: 80
- Plant response rating, Waterhemp_RES1 [6, 18]: 70
- Plant response rating, Waterhemp_RES2 [7, 16]: 30
- Plant response rating, Waterhemp_RES2 [7, 17]: 40
- Plant response rating, Waterhemp_RES2 [7, 18]: 50
